This is an account of results in patent US20200172975A1, “Cell-Free microRNA Signatures of Pancreatic Islet Beta Cell Death” (THE UNIVERSITY OF SYDNEY, priority 2017, published 2020).

The test system of this assay is new-onset T1D individuals. The assay can be described thus: Clinical study of ingested interferon-α: residual C-peptide and microRNA signature of beta cell death. The assay is classed as in vivo, human. An excerpt:
In order to assess whether microRNAs could predict treatment efficacy, microRNAs were profiled from a de-identified clinical study set of samples from new-onset T1D individuals. These individuals received oral interferon-α at two doses as a therapy to preserve beta cell mass. The effect of ingested interferon-α on residual C-peptide (a measure of beta cell mass) at one year following treatment with 5000 units, 30,000 units or placebo was investigated.
Treatment groups are shown on the X-axis. The remaining beta-cell function measured as circulating C-peptide levels at 1 year (relative to baseline) are plotted on Y-axis (adjusted means, vertical bars denote 0.95 confidence intervals).

As to interferon-α, the “remaining beta-cell function measured as circulating C-peptide levels at 1 year (relative to baseline)” value (30,000 units ingested IFN treatment group as compared to the Control group, FIG. 13) was “significant preservation of islet beta cell mass”. Further, the “miRNA signature of beta cell death (abundance)” value (30,000 units ingested IFN treatment group, 12 months from study baseline) is recorded as “lower abundance”. Moreover, the “microRNA signature of beta cell death” value (individuals showing the highest preservation of beta-cell mass at one year of treatment, FIG. 14) is listed as “decreased”.
